Data published in the supplement of paper PMC10307832.

Assays:
Assay in all cases: relative viability (nuclei count vs DMSO), 5 days (fraction); higher = more cells survive
[1] = compound: Cc1cnc(CNC(=O)c2c(=O)c3ccc(N4CCCN(C)CC4)nc3n3c2sc2ccccc23)cn1 [CX-5461] + NC(=O)Nc1cc(-c2cccc(F)c2)sc1C(=O)N[C@H]1CCCNC1 [AZD7762] (partner 0.2 µM)
Outline: (§1)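 Cells from lung cancer lines were seeded into 1536-well plates and, one day later, dosed by pin tool. Treatments were either a single drug or a fixed dose of an anchor drug with five library-drug doses (not always all listed) in √10 steps. After 5 days, nuclei were stained in a one-step fixation (final 0.05% Triton X-100, 1% formaldehyde, 1 ug/ml Hoechst) and counted on 4× images, and relative viability is the treated-to-vehicle nuclei ratio, as the median of duplicate plates.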

[2] = compound: O=C(Nc1cc(C(F)(F)F)cc(C(F)(F)F)c1)c1cc(Cl)ccc1O [IMD-0354] + Nc1ncn([C@H]2C[C@H](O)[C@@H](CO)O2)c(=O)n1 [Decitabine] (partner 2 µM)
Outline: as §1

[3] = compound: Cc1cnc(CNC(=O)c2c(=O)c3ccc(N4CCCN(C)CC4)nc3n3c2sc2ccccc23)cn1 [CX-5461] + CC(=O)c1c(C)c2cnc(Nc3ccc(N4CCNCC4)cn3)nc2n(C2CCCC2)c1=O [Palbociclib] (partner 0.5 µM)
Outline: as §1

[4] = compound: O=C(Nc1cc(C(F)(F)F)cc(C(F)(F)F)c1)c1cc(Cl)ccc1O [IMD-0354] + C[C@@H](Oc1cc(-c2cnn(C3CCNCC3)c2)cnc1N)c1c(Cl)ccc(F)c1Cl [Crizotinib] (partner 1 µM)
Outline: as §1

Cell Line	relative viability ([1]; first compound 0.01 µM)	relative viability ([1]; first compound 0.03162 µM)	relative viability ([1]; first compound 0.1 µM)	relative viability ([1]; first compound 1 µM)	relative viability ([2]; first compound 0.04 µM)	relative viability ([2]; first compound 0.1265 µM)	relative viability ([2]; first compound 0.4 µM)	relative viability ([2]; first compound 1.265 µM)	relative viability ([2]; first compound 4 µM)	relative viability ([3]; first compound 0.01 µM)	relative viability ([3]; first compound 0.03162 µM)	relative viability ([3]; first compound 0.1 µM)	relative viability ([3]; first compound 1 µM)	relative viability ([4]; first compound 0.04 µM)	relative viability ([4]; first compound 0.1265 µM)	relative viability ([4]; first compound 0.4 µM)	relative viability ([4]; first compound 1.265 µM)	relative viability ([4]; first compound 4 µM)	relative viability ([1]; first compound 0.3162 µM)	relative viability ([3]; first compound 0.3162 µM)
NCI-H522	1.09	0.98	0.713	0.79	0.748	0.659	0.615	0.57	0.428	1.04	0.957	1.18	0.993	–	–	–	–	–	–	–
HCC-15	1.24	1.43	1.22	1.23	0.68	0.614	0.292	0.108	0.161	0.705	0.759	0.808	0.592	0.872	0.83	0.486	0.274	0.119	1.15	0.725
A-427	0.807	0.637	0.612	0.408	0.709	0.593	0.522	0.15	0.175	0.526	0.533	0.491	0.425	0.877	0.793	0.519	0.185	0.139	0.627	0.329
NCI-H2228	–	–	–	–	–	–	–	–	–	0.709	0.612	0.563	0.115	0.389	0.442	0.405	0.179	0.22	–	0.73
NCI-H1734	0.583	0.602	0.317	0.286	0.513	0.491	0.467	0.389	0.213	0.325	0.391	0.34	0.292	0.803	0.685	0.4	0.422	0.244	0.327	0.317
SK-LU-1	–	–	–	–	0.775	0.657	0.441	0.264	0.328	0.412	0.407	0.376	0.358	1.19	0.682	0.501	0.28	0.312	–	0.388
PC-14	0.393	0.455	0.351	0.227	0.249	0.22	0.142	0.0934	0.0785	0.467	0.466	0.239	0.0872	0.988	0.92	0.357	0.387	0.179	0.407	0.492
NCI-H1915	0.75	0.74	0.643	0.608	0.299	0.267	0.224	0.25	0.169	0.542	0.534	0.564	0.543	0.787	0.906	0.527	0.434	0.194	0.673	0.53
NCI-H1666	0.796	0.912	0.728	0.69	0.718	0.751	0.716	0.531	0.393	0.63	0.624	0.678	0.572	0.867	1.02	0.94	0.251	0.151	0.856	0.626
HCC-366	0.285	0.254	0.177	0.0411	0.423	0.395	0.248	0.0815	0.0425	0.451	0.546	0.355	0.287	0.586	0.858	0.225	0.105	0.0509	0.117	0.308
LK-2	0.443	0.376	0.299	0.223	0.292	0.315	–	0.141	0.196	0.54	0.972	0.724	0.564	0.22	0.201	0.28	0.29	0.244	–	–
NCI-H661	–	–	–	–	0.567	0.534	0.389	0.244	0.233	0.418	0.374	0.368	0.337	1.07	1.2	0.869	0.524	0.317	–	0.367
PC-3 [JPC-3]	0.803	–	0.822	0.759	0.984	0.813	0.756	0.481	0.336	0.517	–	0.533	0.512	1.08	1.01	0.601	0.419	0.18	0.865	0.543
Calu-6	–	–	–	–	–	–	–	–	–	–	–	–	–	0.842	0.689	0.506	0.276	0.164	–	–
LC-2-ad	0.834	0.919	0.836	0.742	0.876	0.698	0.5	0.322	0.199	0.474	0.552	0.42	0.47	0.431	0.466	0.37	0.358	0.239	0.848	0.469
CAL-12T	0.715	0.658	0.601	0.449	–	–	–	–	–	0.49	0.511	0.448	0.121	0.855	0.472	0.395	0.16	0.214	0.698	0.347
RERF-LC-KJ	1	0.897	0.954	0.901	0.901	0.64	0.493	0.183	0.166	1.03	1.16	0.713	0.742	0.861	0.893	0.495	0.311	0.196	0.807	0.956
NCI-H1650	–	–	–	–	0.378	0.455	0.285	0.203	0.129	0.374	0.364	0.35	0.151	0.921	0.793	0.578	0.19	0.205	–	0.289
BEN	0.737	0.615	0.555	0.531	0.739	0.741	0.567	0.391	0.347	0.497	0.441	0.433	0.437	0.856	0.8	0.463	0.366	0.299	0.745	0.5
EMC-BAC-2	1.06	1.04	0.864	0.566	0.955	0.994	0.696	–	0.282	0.515	0.515	0.468	0.412	0.869	0.677	0.586	0.415	0.27	0.919	0.433
LU99A	0.44	0.303	0.212	0.122	0.565	0.885	0.539	0.617	0.293	0.411	0.434	0.389	0.416	0.453	0.62	0.482	0.214	0.203	0.245	0.322

Cell Line	relative viability ([1]; first compound 0.01 µM)	relative viability ([1]; first compound 0.03162 µM)	relative viability ([1]; first compound 0.1 µM)	relative viability ([1]; first compound 1 µM)	relative viability ([2]; first compound 0.04 µM)	relative viability ([2]; first compound 0.1265 µM)	relative viability ([2]; first compound 0.4 µM)	relative viability ([2]; first compound 1.265 µM)	relative viability ([2]; first compound 4 µM)	relative viability ([3]; first compound 0.01 µM)	relative viability ([3]; first compound 0.03162 µM)	relative viability ([3]; first compound 0.1 µM)	relative viability ([3]; first compound 1 µM)	relative viability ([4]; first compound 0.04 µM)	relative viability ([4]; first compound 0.1265 µM)	relative viability ([4]; first compound 0.4 µM)	relative viability ([4]; first compound 1.265 µM)	relative viability ([4]; first compound 4 µM)	relative viability ([1]; first compound 0.3162 µM)	relative viability ([3]; first compound 0.3162 µM)
ABC-1	0.753	0.777	0.845	0.608	1.23	0.985	0.851	–	0.36	0.675	–	0.879	0.918	1.42	1.22	0.765	0.221	0.269	–	0.367
NCI-H358	0.546	0.593	0.372	0.363	0.239	0.204	0.172	0.106	0.108	0.135	0.124	0.135	0.084	0.6	0.611	0.228	0.232	0.348	0.474	0.0878
NCI-H1299	–	–	–	–	–	–	–	–	–	–	–	–	–	0.943	1	0.518	0.294	0.166	–	–
EBC-1	–	–	–	–	–	–	–	–	–	–	–	–	–	0.19	0.204	0.208	0.209	0.177	–	–
NCI-H2342	0.444	0.486	0.484	0.469	0.728	0.707	0.601	0.656	0.5	0.513	0.505	0.486	0.522	–	–	–	–	–	0.522	0.531
COR-L23	–	–	–	–	0.402	0.443	0.339	0.141	0.146	0.27	0.269	0.233	0.125	0.616	0.532	0.302	0.193	0.131	–	0.234
COR-L 105	–	–	–	–	0.674	0.685	0.576	0.619	0.318	0.414	0.403	0.393	0.357	0.856	0.906	0.538	0.55	0.261	–	0.319
NCI-H1395	0.377	0.328	0.382	0.337	0.74	0.645	0.713	0.358	0.402	0.624	0.599	0.586	0.498	–	–	–	–	–	0.384	0.572
NCI-H596	1.07	1.01	0.965	0.515	1.02	0.998	0.825	0.849	0.616	–	–	–	–	0.928	1.04	0.858	0.955	0.451	1.07	–
NCI-H2023	–	–	–	–	0.262	0.222	0.167	0.0889	0.0963	0.413	0.373	–	0.0908	0.671	0.618	0.432	0.172	0.0868	–	0.309
NCI-H520	–	–	–	–	0.512	0.462	0.435	0.158	0.192	0.219	0.212	0.25	0.176	0.959	0.672	0.44	0.459	0.239	–	0.247
A549	–	–	–	–	0.269	0.229	0.249	0.296	0.1	–	–	–	–	0.834	0.764	0.265	0.0905	0.121	–	–
SK-MES-1	–	–	–	–	0.387	0.386	0.306	0.176	0.205	0.299	0.308	0.281	0.249	1.03	1.08	0.559	0.721	0.252	–	0.342
NCI-H1563	–	–	–	–	–	–	–	–	–	–	–	–	–	0.904	0.774	0.822	0.484	0.44	–	–
NCI-H1793	0.61	0.44	0.313	0.168	0.583	0.438	0.335	0.098	0.262	0.307	0.306	0.345	0.283	–	–	–	–	–	0.391	0.32
NCI-H2009	–	–	–	–	0.374	0.408	0.288	0.18	0.134	0.214	0.201	0.272	0.16	1.1	0.981	0.698	0.165	0.111	–	0.215
SW 900	0.657	0.627	–	0.311	0.432	0.414	0.397	0.208	0.213	0.533	0.538	–	0.519	–	–	–	–	–	0.544	0.621
IA-LM	–	–	–	–	–	–	–	–	–	–	–	–	–	0.948	0.974	0.51	0.0996	0.142	–	–
SW 1573	–	–	–	–	0.814	0.588	0.245	0.115	0.0911	0.343	0.388	0.125	0.109	0.819	0.763	0.408	0.268	0.115	–	0.371
NCI-H1703	–	0.11	0.104	0.107	–	–	–	–	–	–	–	–	–	0.9	0.626	0.494	0.254	0.215	–	–
NCI-H1648	0.647	0.785	0.655	0.592	0.526	0.475	0.401	0.374	0.272	0.32	0.267	0.254	0.284	–	–	–	–	–	0.771	0.274
